Values quoted from earlier work, collected in patent publication US20230292757A1, “SYNERGISTIC AGROCHEMICAL COMPOSITION COMPRISING DIAMIDES AND PLANT GROWTH REGULATORS” (priority 2020, published 2023).

Experiments:
[1] = test system: S. littoralis; details: oral
[2] = test system: L. migratoria; details: oral

In the case of `C=C1C[C@]23C[C@@]1(O)CC[C@H]2[C@@]12C=C[C@H](O)[C@@](C)(C(=O)O1)[C@H]2[C@@H]3C(=O)O` [Gibberellic acid (GA3), Gibberellic acid], the food consumption [1] is listed as “significant reduction” and the food consumption [2] is listed as “significant reduction”.
